Experimental data published in the NIST ThermoML archive (doi:10.1016/j.tca.2005.11.021).
Numbers after ± are expanded uncertainties.

Test: molar heat capacity at constant pressure
Settings: 101.33 kPa, Crystal, Small (less than 1 g) adiabatic calorimetry

N[C@@H](CCC(=O)[O-])C(=O)[O-].N[C@@H](CCC(=O)[O-])C(=O)[O-].O.O.O.O.O.O.O.O.O.[Ho+3].[Ho+3].[O-][Cl+3]([O-])([O-])O.[O-][Cl+3]([O-])([O-])O.[O-][Cl+3]([O-])([O-])[O-].[O-][Cl+3]([O-])([O-])[O-] [diholmium tetraperchlorate bis-l-glutamate nonahydrate]
Settings | molar heat capacity at constant pressure [J/K/mol]
78.47 K | 416.36 ± 1.8
79.95 K | 427.06 ± 1.8
81.58 K | 448.95 ± 1.9
83.14 K | 457.5 ± 1.9
84.69 K | 466.74 ± 2
86.44 K | 480.65 ± 2
88.37 K | 490.26 ± 2.1
90.58 K | 502.33 ± 1.9
93.05 K | 521.47 ± 1.9
95.51 K | 537.31 ± 2
97.87 K | 558.72 ± 2.1
100.23 K | 562.37 ± 2.1
102.52 K | 570.54 ± 2.1
104.79 K | 579.03 ± 2.1
107.01 K | 584.28 ± 2.1
109.19 K | 599.35 ± 2.2
111.54 K | 612.05 ± 2.2
114.01 K | 619.47 ± 2.3
116.69 K | 633.45 ± 2.3
119.55 K | 640.47 ± 2.3
122.36 K | 656.69 ± 2.4
125.12 K | 670.24 ± 2.4
127.84 K | 678.7 ± 2.5
130.52 K | 691.49 ± 2.5
133.16 K | 703.15 ± 2.5
136.41 K | 717.73 ± 2.6
140.25 K | 728.41 ± 2.6
144.03 K | 745.38 ± 2.7
147.75 K | 759.44 ± 2.8
151.88 K | 781.07 ± 2.8
156.39 K | 802.41 ± 2.9
160.82 K | 822.03 ± 3
165.17 K | 841.38 ± 3
169.46 K | 860.32 ± 3.1
173.69 K | 880.13 ± 3.2
177.85 K | 903.04 ± 3.2
181.91 K | 962.58 ± 3.5
185.82 K | 1035.9 ± 3.7
189.62 K | 1053.8 ± 3.8
193.38 K | 1068 ± 3.8
197.09 K | 1084.5 ± 3.9
200.76 K | 1104.7 ± 3.9
204.4 K | 1116.6 ± 4
208 K | 1131.5 ± 4
211.57 K | 1149.2 ± 4.1
215.09 K | 1170.1 ± 4.2
218.58 K | 1180.3 ± 4.2
222.04 K | 1198 ± 4.3
225.47 K | 1211.6 ± 4.3
228.86 K | 1235.1 ± 4.4
232.19 K | 1241.6 ± 4.4
235.57 K | 1256.3 ± 4.5
239.35 K | 1265.1 ± 4.5
243.62 K | 1286.5 ± 4.6
247.83 K | 1297.2 ± 4.6
252.02 K | 1318.1 ± 4.7
256.17 K | 1324 ± 4.7
260.28 K | 1339.5 ± 4.8
264.35 K | 1355.8 ± 4.8
268.38 K | 1368.2 ± 4.9
272.36 K | 1390.1 ± 4.9
276.3 K | 1406.8 ± 5
280.21 K | 1418.2 ± 5
284.86 K | 1435.3 ± 5.1
290.1 K | 1457.8 ± 5.2
295.36 K | 1477.1 ± 5.2
300.5 K | 1499 ± 5.3
305.57 K | 1521.1 ± 5.4
310.61 K | 1529.2 ± 5.4
315.6 K | 1558.3 ± 5.5
320.54 K | 1577.6 ± 5.6
325.43 K | 1599.1 ± 5.7
330.3 K | 1607 ± 5.7
335.02 K | 1641.9 ± 5.8
339.66 K | 1649.4 ± 5.8
344.14 K | 1668.3 ± 5.9
